{"source": "patent US20100021519A1", "about": "“Compositions and Methods for Treating or Preventing Diseases of Body Passageways” (priority 2006, published 2010)", "key": {"[1]": {"test": "Pilot in situ intra-tracheal infusion of THX-polymer formulation in rats immediately after termination", "type": "in vivo, rat", "details": "for THX tissue level, trachea: in situ infusion over 30 mins, 8 mg/kg, 200 μl, tissue harvested after 2 hours", "description": "A pilot study of in situ intra-tracheal infusion was performed to estimate tracheal and lung tissue levels after in situ intra-tracheal infusion of THX-polymer formulation.\nMethod: Two rats (immediately after termination) were intra-tracheally infused over 30 mins with a THX-polymer formulation. The dose was 8 mg/kg and volume was 200 μl. After infusion these were wrapped for 2 hours in a warm heating pad. Tracheo-bronchial and lung tissue were harvested after wiping the lumen area of the tracheo-bronchial lumen with a tissue and spatula (to take off any adsorbed drug) at the end of 2 hours. Samples were frozen at −80 C until processed and analyzed by LC-MS. Sample extraction was conducted at AraVasc Inc. The processed samples were analyzed at Alta Analytical laboratories by LC-MS."}, "[2]": {"test_system": "liver and lung cancer", "details": "preliminary reports, cited from earlier work"}, "[3]": {"details": "for THX level, plasma / THX tissue level, lung: rat; for THX level, plasma: intratracheal 3 × 4 mg/kg; for THX tissue level, lung: intratracheal THX-polymer formulation 3 × 4 mg/kg, LC-MS"}, "[4]": {"details": "clinical trials in liver and lung cancer"}, "[5]": {"details": "rats, intra-tracheal THX-polymer formulation, 12 mg/kg dose (100 μl dosed 3 times)"}}, "note": "Like-named read-outs stand apart in the source and are kept apart here.", "data": [{"smiles": "O=C1CCC(N2C(=O)c3ccccc3C2=O)C(=O)N1", "note": "(racemic) [THX, 2-(2,6-dioxo-3-piperidinyl)-1H-isoindole-1,3(2H)-dione]", "values": [{"measurement": "THX tissue level, trachea", "setting": "[1]; Rat 1", "value": 211.21, "unit": "μg/100 mg"}, {"measurement": "THX tissue level, trachea", "setting": "[1]; Rat 2", "value": 290.36, "unit": "μg/100 mg"}, {"measurement": "THX levels in tracheo-bronchial and lung tissue (in words)", "setting": "[1]; rats, in situ intra-tracheal infusion (0.5 hr), 8 mg/kg dose", "value": "High levels"}, {"measurement": "Disease control rates", "setting": "[2]; [4]", "value": "8%-57%"}, {"measurement": "Response rates", "setting": "[2]; [4]", "value": "4%-10%"}, {"measurement": "Toxicity in clinical trials (in words)", "setting": "[2]", "value": "associated with systemic toxicities"}, {"measurement": "THX level, plasma", "setting": "[3]; 100 μl, 20 mins post 3rd dose, unit of the table head", "value": 0.19, "unit": "ng/mL"}, {"measurement": "THX level, plasma", "setting": "[3]; 100 μl, 40 mins post 3rd dose, unit of the table head", "value": 0.44, "unit": "ng/mL"}, {"measurement": "THX level, plasma", "setting": "[3]; 20 mins post 3rd dose, unit of the text", "value": 190, "unit": "ng/mL"}, {"measurement": "THX level, plasma", "setting": "[3]; 40 mins post 3rd dose, unit of the text", "value": 440, "unit": "ng/mL"}, {"measurement": "THX tissue level, lung", "setting": "[3]; 100 μl, 20 mins post 3rd dose", "value": 21.80, "unit": "μg/100 mg"}, {"measurement": "THX tissue level, lung", "setting": "[3]; 100 μl, 40 mins post 3rd dose", "value": 16.81, "unit": "μg/100 mg"}, {"measurement": "Distribution/diffusion into the lung tissue and vasculature (in words)", "setting": "[3]; rats, intra-tracheal THX-polymer formulation, 12 mg/kg dose", "value": "good distribution/diffusion into the lung tissue and vasculature"}, {"measurement": "THX levels in lung tissue (in words)", "setting": "[3]; [5]", "value": "High levels"}, {"measurement": "THX levels in plasma (in words)", "setting": "[3]; [5]", "value": "low levels"}]}]}
